Data as given in patent publication US12082582B2, “Synergistic preservative compositions, process for preparing the same and method of use thereof” (ISP INVESTMENTS LLC, priority 2018, dated 2024).
Blank lines part the entries; values can stand above or below the compound they belong to.

Key:
Format in all cases: cell-based
C. albicans = experiment: Synergy study of PC and (CHA + IPMP), MIC by broth dilution; conditions: compound acting alone
Method: (§1) The synergistic activity of PC and (CHA+IPMP) compounds were performed against selected microbial strains.
(§2) Tryptic Soy Broth (TSB) media was used for bacterial evaluations and Yeast Malt Broth (YMB) for fungal evaluations. The IPMP solution is prepared by combining 0.25% IPMP with 20% DMSO and water (q.s. 100%). The CHA solution was prepared by combining 0.5% CHA with 20% DMSO and water (q.s. 100%). The compounds are then added to the media (50 μL) and serially diluted. The same amount of PC was added to all wells (e.g. 50 μL of 6.25% solution). 100 μl of a suspension of the testing bacteria or fungi are added to a final concentration of approximately 10^6 CFU/ml in double concentrated media. The inoculated media is then incubated at 32° C. for 2-5 days for bacteria or at 28° C. for 3-7 days for fungi.
(§3) The lowest concentration of each compound or mixture of compounds to inhibit visible growth is taken as the minimum inhibitory concentration (MIC). The MIC is taken as end points of activity. End points for the mixture of compound A (CHA) and compound B (IPMP) with and without PC are then compared with the end points for the pure active ingredient alone.
(§4) Synergism was determined by a commonly used and accepted method described by Kull A. C; Eisman, P. C.; Sylwestrowicz, H. D. and Mayer, R. L. 1961. Applied Microbiology, 9:538-541 using the ratio determine by: Qa/QA+Qb/QB=Synergy Wherein: • QA is the concentration of compound A in PPM, acting alone, which produced an end point. • Qa is the concentration of compound A in PPM, in the mixture, which produced an end point. • QB is the concentration of compound B in PPM, acting alone, which produced an end point. • Qb is the concentration of compound B in PPM, in the mixture, which produced an end point When the sum of Qa/QA+Qb/QB is greater than one, antagonism is indicated. When the sum is equal to one, additive is indicated.
(§5) The results comprise following parameters: 1. Test organism (bacteria or fungi), 2. The end-point activity in % measured by MIC for the compound A alone (QA), for compound A in the mixture (Qa), for compound B alone (QB), for compound B in the mixture (Qb), 3. The ratio of CHA and IPMP (compound A and B) in that particular combination, 4. The sum of Qa+Qb (total ppm that inhibited growth) and 5. and the synergy index (SI) based on the formula SI=Qa/QA+Qb/QB

B. cepacia = experiment: as above; conditions: compound acting alone
Method: as §1, §2, §3, §4, §5

E. coli = experiment: as above; conditions: compound acting alone
Method: as §1, §2, §3, §4, §5

A. niger = experiment: as above; conditions: compound acting alone
Method: as §1, §2, §3, §4, §5

[1] = Antimicrobial and antifungal characteristics (MIC) of propylene carbonate alone
Description: In one embodiment of the application, the synergistic composition of propylene carbonate with one or more organic compounds or preservative compounds can provide broad spectrum antimicrobial properties. […] The presence of propylene carbonate in the composition can maximize the partitioning of the mixture of organic/preservative compounds into the water phase when added to an end-user composition comprising a mixture of oil and a water phase. Further, the propylene carbonate-based compositions or blends acts as a delivery agent for other preservative/organic actives that have low polarity with high dielectric constant making it a suitable blend to dissolve hydrophobic non-polar actives. The high dielectric constant of the composition enables it to partition the active ingredients towards the oil/water interface which is critical for maximum efficacy and reduces use levels of preservatives or boosters.

MIC (C. albicans; Candida albicans, read-out: MIC, CHA alone (QA)): 312 µg/mL | MIC (B. cepacia; Burkholderia cepacia, read-out: MIC, CHA alone (QA)): 312 µg/mL | MIC (E. coli; Escherichia coli, read-out: MIC, CHA alone (QA)): 625 µg/mL | MIC (A. niger; Aspergillus niger, read-out: MIC, CHA alone (QA)): 312 µg/mL
Structure (SMILES): CCCCCCCC(=O)NO [CHA, caprylhydroxamic acid]

Structure (SMILES): Cc1cc(O)ccc1C(C)C [IPMP, isopropyl methylphenol]
MIC, IPMP alone (QB) (C. albicans): 312.5 ppm | MIC, IPMP alone (QB) (B. cepacia): 312.5 ppm | MIC, IPMP alone (QB) (E. coli): 625 ppm | MIC, IPMP alone (QB) (A. niger): 156.3 ppm

Structure (SMILES): CC1COC(=O)O1 (stereo not drawn) [Propylene carbonate]
Antimicrobial and antifungal characteristics (MIC) [1]: no significant antimicrobial and antifungal characteristics
